According to patent US20180104198A1, “Pharmaceutical Composition, Methods for Treating and Uses Thereof” (Boehringer Ingelheim International GmbH, priority 2016, published 2018):
Blank lines part the entries; values can stand above or below the molecule they belong to.

Key:
[1] = tested on: SGLT2 versus SGLT1; conditions: Grempler et al. 2012; cited from earlier work
[2] = tested on: patients with type 2 diabetes mellitus; conditions: patients with type 2 diabetes mellitus at high risk for cardiovascular events; Zinman et al. 2015; cited from earlier work
[3] = tested on: HbA1c; conditions: metformin on its own, in the diabetic; cited from earlier work
[4] = target: T1, human diamine oxidase (Homo sapiens, UniProt P19801); assay: inhibition of human diamine oxidase; conditions: qualitative statement
T1 sequence (P19801 20-751): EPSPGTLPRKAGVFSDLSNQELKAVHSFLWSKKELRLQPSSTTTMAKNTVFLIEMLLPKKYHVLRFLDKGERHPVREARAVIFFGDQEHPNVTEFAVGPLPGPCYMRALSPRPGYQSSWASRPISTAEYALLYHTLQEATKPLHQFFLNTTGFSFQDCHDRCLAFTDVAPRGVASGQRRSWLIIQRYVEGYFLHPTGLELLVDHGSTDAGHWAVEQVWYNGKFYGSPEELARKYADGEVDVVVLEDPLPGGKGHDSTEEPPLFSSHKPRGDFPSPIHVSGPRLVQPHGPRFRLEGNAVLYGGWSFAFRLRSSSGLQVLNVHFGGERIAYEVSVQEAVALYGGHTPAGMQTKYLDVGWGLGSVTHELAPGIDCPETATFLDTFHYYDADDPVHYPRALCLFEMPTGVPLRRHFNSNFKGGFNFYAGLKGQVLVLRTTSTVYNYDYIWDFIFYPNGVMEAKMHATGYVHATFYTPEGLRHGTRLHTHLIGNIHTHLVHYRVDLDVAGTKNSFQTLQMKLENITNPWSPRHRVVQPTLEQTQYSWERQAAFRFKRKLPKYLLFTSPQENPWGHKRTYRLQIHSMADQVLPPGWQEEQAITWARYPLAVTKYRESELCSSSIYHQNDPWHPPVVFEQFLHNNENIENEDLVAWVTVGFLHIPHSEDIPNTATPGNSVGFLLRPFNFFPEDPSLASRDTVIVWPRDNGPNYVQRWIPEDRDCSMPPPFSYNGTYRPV

Structure (SMILES): OC[C@H]1O[C@@H](c2ccc(Cl)c(Cc3ccc(O[C@H]4CCOC4)cc3)c2)[C@H](O)[C@@H](O)[C@@H]1O [empagliflozin]
selectivity SGLT2 versus SGLT1 [1]: high selectivity | rates of the primary composite cardiovascular outcome and of death from any cause [2]: significantly lower rates

Structure (SMILES): CN(C)C(=N)N=C(N)N [metformin]
average improvement in the HbA1c value [3]: 1.0-1.5%

inhibitory activity against human diamine oxidase [4]: low inhibitory activity
Structure (SMILES): CC(C)(C)NC(=O)c1ccc(OC/C(=C/F)CN)cc1 [Compound 23, (E)-4-(2-(Aminomethyl)-3-fluoroallyloxy)-N-tert-butylbenzamide]
